Measured values taken from patent US20240391923A1, “METHIONINE ADENOSYLTRANSFERASE 2A INHIBITOR FOR TREATING MTAP DELETION-TYPE CANCER” (SUZHOU GENHOUSE BIO CO., LTD., priority 2022, published 2024).
Where two headings read alike, the source gives them in different places.

Legend:
[1] = Pharmacokinetic test in rats (IV and PO); type: in vivo; conditions: rat, plasma, SD rats; for half-life: read-out: T½ (converted)
[2] = tested on: SDMA in HCT116-MTAP-knockout cell line; assay: Cell symmetric dimethylarginine (SDMA) test, In-cell Western, HCT116-MTAP-knockout; type: cell-based; conditions: Homo sapiens, 96 h
[3] = tested on: HCT116-MTAP-knockout (−/−) cell strain; assay: Tumor cell proliferation inhibition assay (CellTiter-Glo), HCT116-MTAP-knockout (-/-); type: cell-based; conditions: Homo sapiens, 120 h, HCT116-MTAP-knockout (−/−) cells, 5-day treatment
Procedure, shortened: (§1)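 Cells seeded, then after 24 h treated with 10-point 1:3 dilutions from 10 μM top concentration, DMSO control. Cultured 5 days at 37 °C/5% CO2; growth inhibition from ATP level by CellTiter-Glo luminescence.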

[4] = tested on: DOHH-2 cell strain; assay: Tumor cell proliferation inhibition assay (CellTiter-Glo), DOHH-2; type: cell-based; conditions: Homo sapiens, 120 h, DOHH-2 cells, 5-day treatment
Protocol: After the HCT116-MTAP-knockout (−/−) cell strain, the HCT116-MTAP wild-type(+/+)-cell strain, the DOHH-2 cell strain, or the Hut-78 cell strain was treated with the test compound for 5 days, the ATP level was measured using a CellTiter-Glo kit of Promega to evaluate the inhibition of the test compound against the growth of the tumor cell strain.
In the present application, the HCT116-MTAP-knockout (−/−) cell strain, the HCT116-MTAP wild-type (+/+)-cell strain, the DOHH-2 cell strain, or the Hut-78 cell strain was seeded into a 96-well cell culture plate at an appropriate cell density. After 24 h, the cells were treated using the test compounds diluted 1:3 fold at the highest concentration of 10 μM for 10 gradients, and a DMSO treatment group was set up separately. The cells were cultured in a 37° C./5% CO2 incubator for 5 days.

[5] = tested on: SDMA in human colon cancer cell line HCT116; assay: Cell symmetric dimethylarginine (SDMA) test, In-cell Western, HCT116 (MTAP wild-type); type: cell-based; conditions: Homo sapiens, HCT-116, 96 h
Procedure, shortened: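 SDMA level, an indirect readout of cellular MAT2A inhibition, measured by In-cell Western as background-subtracted 800/700 nm signal against DRAQ5. Cells exposed 4 days to six 1:4-diluted doses from 6 μM; inhibition relative to DMSO, IC50 from sigmoidal fit.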

[6] = molecular target: MAT2A recombinant protein (Homo sapiens, UniProt P31153); assay: MAT2A inhibitory activity (malachite green colorimetric enzyme assay); type: biochemical
Procedure, shortened: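 Compounds tested over 10 points, 3-fold dilutions, top final concentration 1000 nM. Enzyme reaction: MAT2A, L-methionine, ATP, room temperature, 60 min, in HEPES pH 7.5 buffer with KCl, MgCl2 and DTT; inorganic phosphate read colorimetrically (malachite green, A630). Inhibition vs log concentration fitted for IC50.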

[7] = tested on: HCT116-MTAP wild-type (+/+)-cell strain; assay: Tumor cell proliferation inhibition assay (CellTiter-Glo), HCT116-MTAP wild-type (+/+); type: cell-based; conditions: Homo sapiens, 120 h, HCT116-MTAP wild-type (+/+) cells, 5-day treatment
Procedure, shortened: as §1

[8] = IC50 score class, read-out: Cell 96 h SDMA Inhibition (HCT116-MTAP−/−) (score)
[9] = IC50 score, read-out: Tumor cell 5-day relative growth inhibition (HCT116-MTAP−/−) (nM), score
[10] = IC50 value, read-out: Tumor cell 5-day relative growth inhibition (HCT116-MTAP−/−)
[11] = IC50 score, read-out: Tumor cell 5-day relative growth inhibition (DOHH-2) (nM), score
[12] = IC50 value, read-out: Tumor cell 5-day relative growth inhibition (DOHH-2)
[13] = IC50 score class, read-out: Cell 96 h SDMA Inhibition (HCT116-MTAP+/+) (score)
[14] = read-out: Cell 96 h SDMA inhibition (HCT116-MTAP+/+)
[15] = read-out: Cell 96 h SDMA Inhibition (HCT116-MTAP−/−)

MAT2A recombinant protein, sequence (P31153 whole entry): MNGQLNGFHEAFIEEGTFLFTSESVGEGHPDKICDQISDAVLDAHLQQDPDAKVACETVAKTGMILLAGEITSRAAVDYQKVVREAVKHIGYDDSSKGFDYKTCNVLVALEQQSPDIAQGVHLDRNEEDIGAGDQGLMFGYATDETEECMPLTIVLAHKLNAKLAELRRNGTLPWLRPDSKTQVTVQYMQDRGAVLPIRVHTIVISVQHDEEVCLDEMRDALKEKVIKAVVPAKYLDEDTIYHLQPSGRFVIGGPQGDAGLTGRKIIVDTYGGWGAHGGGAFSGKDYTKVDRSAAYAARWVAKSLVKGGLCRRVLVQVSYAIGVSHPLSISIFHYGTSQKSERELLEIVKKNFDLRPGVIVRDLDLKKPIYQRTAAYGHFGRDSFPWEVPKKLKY

| AUC ([1]; IV 1 mg/kg) | bioavailability ([1]; IV 1 mg/kg, PO 5 mg/kg) | half-life ([1]; IV 1 mg/kg) | AUC ([1]; PO 5 mg/kg) | half-life ([1]; PO 5 mg/kg) | IC50 [2, 8] | IC50 [3, 9] | IC50 [3, 10] | IC50 [4, 11] | IC50 [4, 12] | IC50 [5, 13] | IC50 [5, 14] | clearance ([1]; IV 1 mg/kg) | IC50 [2, 15] | IC50 ([6]; IC50 score class, read-out: MAT2A Inhibition (score)) | IC50 ([6]; read-out: MAT2A Inhibition) | IC50 ([7]; IC50 score, read-out: Tumor cell 5-day relative growth inhibition (HCT116-MTAP+/+) (nM), score) | IC50 ([7]; IC50 value, read-out: Tumor cell 5-day relative growth inhibition (HCT116-MTAP+/+)) | Structure (SMILES) |
| --- | --- | --- | --- | --- | --- | --- | --- | --- | --- | --- | --- | --- | --- | --- | --- | --- | --- | --- |
| 7.81 µM·h | 67% | 0.08 h | 26 µM·h | 0.97 h | < 200 nM | < 500 nM | 228 nM | 500 to 2000 nM | 940 nM | > 3000 nM | 4280 nM | – | – | – | – | – | – | CCn1cc2c(n1)c(=O)n(-c1cccnc1)c1cc(Cl)ccc21 [Compound B3] |
| 2.5 µM·h | 68% | 0.62 h | 7.95 µM·h | 2.1 h | 200 to 1000 nM | – | – | ≥ 2000 nM | – | > 3000 nM | 9300 nM | 21.7 mL/min/kg | 782 nM | < 100 nM | 38.8 nM | – | – | CCn1cc2c(n1)c(=O)n(-c1cccc(F)c1)c1cc(Cl)ccc21 [Compound B4] |
| 7.6 µM·h | 60% | 1.7 h | 7.6 µM·h | 3.3 h | < 200 nM | < 500 nM | 75 nM | < 500 nM | 444 nM | 200 to 1000 nM | 342 nM | 16 mL/min/kg | 30.5 nM | – | – | < 500 nM | 279 nM | COc1ccc(Cn2cc3c(n2)c(=O)n(-c2cccnc2)c2cc(Cl)ccc32)cc1 [Compound B28] |
